# From publication PMC10501326, “A Phase I Study of the Pan-Notch Inhibitor CB-103 for Patients with Advanced Adenoid Cystic Carcinoma and Other Tumors” (Cancer Research Communications, 2023)
# “And” between values parts separate entries of the source, which are not always exact repeats. Equal entries are not always repeated.
# Experiments:
# [1] = tested on: NOTCH 2; assay: Peripheral whole blood Notch target gene expression (Nanostring); type: in vivo, human; settings: twice daily dosing, vs baseline
# From the text: (§1) Archival tumor tissue (not older than 6 months prior to screening) or fresh tumor biopsy was required to characterize Notch alteration status by targeted genomic sequencing and/or NICD1 expression (via IHC) among the confirmatory cohort at baseline. Repeat biopsy on cycle 2 day 15 and at disease progression was optional. Serial whole blood samples (and/or bone marrow samples and saliva among patients with T-ALL/T-LBL) were obtained on day 1 of cycles 1–6 to evaluate the dynamics of Notch gene expression. Peripheral blood was collected with PaxGene tubes and frozen at −20°C until processing. RNA was extracted (Qiagen RNeasy Micro kit) from peripheral whole blood and analyzed by Nanostring with percent change in expression levels reported with respect to baseline normalized values.
# [2] = tested on: IL7R alpha; assay: as above; type: in vivo, human; settings: twice daily dosing, vs baseline
# From the text: as §1
# [3] = tested on: HEY1; assay: as above; type: in vivo, human; settings: twice daily dosing, vs baseline
# From the text: as §1
# [4] = tested on: NOTCH1; assay: as above; type: in vivo, human; settings: twice daily dosing, vs baseline
# From the text: as §1
# [5] = tested on: NOTCH4; assay: as above; type: in vivo, human; settings: twice daily dosing, vs baseline
# From the text: as §1
# [6] = Phase I/II safety and tolerability: DLTs and treatment-related adverse events (CTCAE v4.03); type: in vivo
# From the text: The study was an open-label, nonrandomized, phase I/II dose-escalation study with planned expansion cohorts. […] Part B was a potential expansion phase at the MTD/RP2D to determine preliminary evidence of antitumor activity and to confirm safety among patients stratified by preselected cancer indications.
# Part A was based on a two-parameter Bayesian logistic regression model (BLRM) to investigate safety and tolerability of sequentially enrolled dose cohorts of 3–6 patients. The first 2 participants of each cohort were enrolled in a staggered approach with at least 1 day apart between first dosing.
# 12-lead electrocardiograms and Holter safety monitoring with periodic cardiac imaging was employed. Efficacy assessments used RECIST v1.1 applied to CT/MRI scans performed at screening and every 8 weeks; or evaluated complete remission with complete hematologic recovery by National Comprehensive Cancer Network guideline criteria for T-ALL/T-LBL. Adherence to study drug administration was evaluated using both patient diaries and capsule counts.
# Secondary endpoints included assessment of clinical benefit rate [CBR; defined as achieving complete and/or partial response and/or stable disease (SD) at prespecified benchmarks], duration of response, progression-free survival (PFS) and overall survival (OS), and plasma pharmacokinetics.
# The SS was the primary population for all safety and efficacy analyses, except for determination of dose-DLT relationship.
# Under this model, and accounting for dropouts and some additional patients enrolled to each cohort, approximately 55 patients were anticipated to enroll in dose escalation and approximately 45 patients in the confirmatory phase. […] All statistical analyses were analyzed using SAS v9.4 software.
# [7] = set-up: method as in PMID 32601208; settings: single agent and in combination with targeted and cytotoxic therapies; cited from earlier work
# [8] = individual patient, total dose 800 mg
# [9] = individual patients, total dose 500 mg
# [10] = individual patients, total dose 600 mg
# [11] = individual patients, total dose 1000 mg
# [12] = N = 79, per-patient, CTCAE v4.03
smiles,measurement,setting,value
CC(C)(C)c1ccc(Oc2ccc(N)cn2)cc1 [CB-103],NOTCH 2 percent change in peripheral expression,[1]; [8],-9.4%
same,NOTCH 2 percent change in peripheral expression,[1]; [9],19.9% and -9.6%
same,NOTCH 2 percent change in peripheral expression,[1]; [10],-25.2% and -38.4% and -5.5% and -14.8% and -41.1%
same,NOTCH 2 percent change in peripheral expression,[1]; [11],-31.8% and -14.2% and -39.3% and -15.2% and 5.1%
same,IL7R alpha percent change in peripheral expression,[2]; [8],-29.7%
same,IL7R alpha percent change in peripheral expression,[2]; [9],32.3% and 33.5%
same,IL7R alpha percent change in peripheral expression,[2]; [10],58.3% and -58.0% and -24.8% and -2.9% and -29.3%
same,IL7R alpha percent change in peripheral expression,[2]; [11],-53.6% and 3.5% and -16.2% and 0.2% and -41.7%
same,HEY1 percent change in peripheral expression,[3]; [8],52.3%
same,HEY1 percent change in peripheral expression,[3]; [9],-52.0%
same,HEY1 percent change in peripheral expression,[3]; [10],5.0% and -36.1% and 30.3% and -25.6%
same,HEY1 percent change in peripheral expression,[3]; [11],11.7% and -71.3% and -75.9% and -55.2% and -57.8%
same,NOTCH1 percent change in peripheral expression,[4]; [8],-15.5%
same,NOTCH1 percent change in peripheral expression,[4]; [9],39.2% and -7.1%
same,NOTCH1 percent change in peripheral expression,[4]; [10],-28.1% and -41.2% and -35.7% and -14.2% and -39.7%
same,NOTCH1 percent change in peripheral expression,[4]; [11],-8.7% and -0.1% and -58.3% and -20.2% and -13.3%
same,NOTCH4 percent change in peripheral expression,[5]; [8],-3.5%
same,NOTCH4 percent change in peripheral expression,[5]; [9],37.6% and -16.9%
same,NOTCH4 percent change in peripheral expression,[5]; [10],34.0% and -49.7% and -7.9% and 11.5% and 32.9%
same,NOTCH4 percent change in peripheral expression,[5]; [11],-20.8% and -40.4% and 22.0% and 4.5% and 29.7%
same,Number of DLTs observed,[6]; 12 dose-escalation cohorts (n = 64),Two
same,Recommended phase II dose (RP2D),"[6]; 5 days on, 2 days off weekly",500 mg twice daily
same,N DLT,"[6]; CH8 522 mg QD, N=4",1
same,N DLT,"[6]; CH11 400 mg BID, 5/2, N=6",1
same,Grade 4 TRAE elevated lipase,[6]; N = 79,^aThe two TRAEs classified as grade 4 were elevated lipase (one event) and elevated liver function tests (one event).
same,Grade 4 TRAE elevated liver function tests,[6]; N = 79,^aThe two TRAEs classified as grade 4 were elevated lipase (one event) and elevated liver function tests (one event).
same,"TRAE Anemia, any grade",[6]; [12],13 (16) N (%)
same,"TRAE Anemia, grade 1–2",[6]; [12],9 (11) N (%)
same,"TRAE Anemia, grade 3",[6]; [12],4 (5) N (%)
same,"TRAE Any AE, any grade",[6]; [12],60 (76) N (%)
same,"TRAE Any AE, grade 1–2",[6]; [12],47 (60) N (%)
same,"TRAE Any AE, grade 3",[6]; [12],13 (16) N (%)
same,"TRAE Any AE, grade 4",[6]; [12],2 (3) N (%)
same,"TRAE Blood and lymphatic system disorders, any grade",[6]; [12],13 (17) N (%)
same,"TRAE Blood and lymphatic system disorders, grade 1–2",[6]; [12],9 (11) N (%)
same,"TRAE Blood and lymphatic system disorders, grade 3",[6]; [12],4 (5) N (%)
same,"TRAE Diarrhea, any grade",[6]; [12],10 (13) N (%)
same,"TRAE Diarrhea, grade 1–2",[6]; [12],10 (13) N (%)
same,"TRAE Dyschromatopsia, any grade",[6]; [12],15 (19) N (%)
same,"TRAE Dyschromatopsia, grade 1–2",[6]; [12],15 (19) N (%)
same,"TRAE Dyspepsia, any grade",[6]; [12],10 (13) N (%)
same,"TRAE Dyspepsia, grade 1–2",[6]; [12],10 (13) N (%)
same,"TRAE Eye disorders, any grade",[6]; [12],37 (47) N (%)
same,"TRAE Eye disorders, grade 1–2",[6]; [12],36 (46) N (%)
same,"TRAE Eye disorders, grade 3",[6]; [12],1 (1) N (%)
same,"TRAE Fatigue, any grade",[6]; [12],9 (11) N (%)
same,"TRAE Fatigue, grade 1–2",[6]; [12],9 (11) N (%)
same,"TRAE Gastrointestinal disorders, any grade",[6]; [12],39 (49) N (%)
same,"TRAE Gastrointestinal disorders, grade 1–2",[6]; [12],38 (48) N (%)
same,"TRAE Gastrointestinal disorders, grade 3",[6]; [12],1 (1) N (%)
same,"TRAE General disorders and administration site conditions, grade 1–2",[6]; [12],9 (11) N (%)
same,"TRAE General disorders and administration site conditions, grade 3",[6]; [12],1 (1) N (%)
same,"TRAE Laboratory investigations, any grade",[6]; [12],13 (16) N (%)
same,"TRAE Laboratory investigations, grade 1–2",[6]; [12],8 (10) N (%)
same,"TRAE Laboratory investigations, grade 3",[6]; [12],5 (6) N (%)
same,"TRAE Nausea, any grade",[6]; [12],17 (22) N (%)
same,"TRAE Nausea, grade 1–2",[6]; [12],17 (22) N (%)
same,"TRAE Skin and subcutaneous tissue disorders, any grade",[6]; [12],8 (10) N (%)
same,"TRAE Skin and subcutaneous tissue disorders, grade 1–2",[6]; [12],6 (8) N (%)
same,"TRAE Skin and subcutaneous tissue disorders, grade 3",[6]; [12],2 (3) N (%)
same,"TRAE Vision blurred, any grade",[6]; [12],12 (15) N (%)
same,"TRAE Vision blurred, grade 1–2",[6]; [12],12 (15) N (%)
same,"TRAE Visual impairment, any grade",[6]; [12],8 (10) N (%)
same,"TRAE Visual impairment, grade 1–2",[6]; [12],7 (9) N (%)
same,"TRAE Visual impairment, grade 3",[6]; [12],1 (1) N (%)
same,"TRAE Vomiting, any grade",[6]; [12],9 (11) N (%)
same,"TRAE Vomiting, grade 1–2",[6]; [12],8 (10) N (%)
same,"TRAE Vomiting, grade 3",[6]; [12],1 (1) N (%)
same,"Grade 3 or 4 TRAEs, number reported",[6]; SS population (n = 79),26
same,Patients who interrupted or required dose adjustment,[6]; all patients,32 patients (%)
same,DLT: patients with asymptomatic grade 3 elevation in gamma-glutamyl transferase leading to drug discontinuation,[6]; cohort 8 (552 mg daily dose),1 patient
same,DLT observed in cohort 11,"[6]; cohort 11 (400 mg twice daily, 5 days on and 2 off each week), dose interruption, continued at reduced dose",grade 3 visual impairment
same,MTD,[6]; dose escalation up to 500 mg twice daily 5/2,not reached
same,Resumed at the dose prior to interruption,[6]; in vivo,81 % of the time
same,Deaths related to study treatment,[6]; n = 79,no drug-related deaths
same,Grade 3–4 TRAE anemia,[6]; n = 79,7 events
same,Grade 3–4 TRAE elevated liver function tests,[6]; n = 79,5 events
same,Grade 3–4 TRAE elevated serum amylase or lipase,[6]; n = 79,3 events
same,Patients with grade 3–4 TRAEs,[6]; n = 79,15 patients (%) and 15 (19%) patients (%)
same,Median duration of interruption for TRAEs,[6]; range: 1–14,5 days
same,Anticancer activity,[7],potent anticancer activity
